We go through two molecules from patent US8030547B2, “Gene coding for acetolactate synthase” (priority 2002, dated 2011).

Holding throughout (assay type): biochemical, rice (Oryza sativa var. Kinmaze)
Experiment [1] has as its target T1, GST fusion R172S mutant ALS protein (Oryza sativa subsp. japonica, UniProt Q6K2E8, R172S).
T1 construct: an expression vector having the full-length wild type ALS cDNA incorporated into the Eco RI site of pGEX-2T; made in house; host or cells: E. coli JM109, pGEX-2T(ALS R172S mutant); crude supernatant
Briefly: Herbicide sensitivity of ALS protein expressed in E. coli (crude enzyme solution), R172S. The following applies: for RS ratio: R172S mutant vs wild type. As for the experimental part:
(§1) ALS activity resulting from the mutant ALS protein contained in the eluted fractions apportioned into each test tube for apportioning was measured as follows. A reaction solution to be used in a measurement reaction was prepared by mixing an eluted fraction to be measured with a solution comprising 20 mM sodium pyruvate, 0.5 mM TPP, 0.5 mM MgCl2, 10 μM FAD and 20 mM potassium phosphate buffer (pH 7.5). One ml of this reaction solution was used. After the eluted fraction to be measured was added, the measurement reaction was performed at 30° C. for 40 to 60 minutes. Then, the reaction was stopped by addition of 0.1 ml of 6N sulfuric acid (or 0.25 N sodium hydroxide).
(§2) After the reaction was stopped, the reaction solution was incubated at 60° C. for 10 minutes, thereby converting acetolactate contained in the reaction solution to acetoin.
(§3) Then, to quantify acetoin contained in the reaction solution, 1 ml of 0.5% (w/v) creatine and 1 ml of 5% (w/v) α-naphthol dissolved in 2.5 N sodium hydroxide was added to the reaction solution, followed by incubation at 37° C. for 10 minutes. Acetoin was then quantified by color comparison of the absorbance (at 525 nm) of the reaction solution, thereby evaluating ALS activity. In addition, since the reaction solution contained a small amount of sodium pyruvate, reaction time 0 was used as control.
(§4) E. coli transformed with pGEX-2T(ALS-wild) constructed in Example 3(5), E. coli transformed with pGEX-2T(ALS-W548L mutant) constructed in Example 5, E. coli transformed with pGEX-2T(ALS-S627I mutant) constructed in Example 5, E. coli transformed with pGEX-2T(ALS P171H mutant) constructed in Example 6, E. coli transformed with pGEX-2T(ALS R172S mutant) constructed in Example 6, E. coli transformed with pGEX-2T(ALS P171H, R172S mutant) constructed in Example 7, E. coli transformed with pGEX-2T(ALS-P171H, W548L mutant) constructed in Example 8, E. coli transformed with pGEX-2T(ALS-P171H, S627I mutant) constructed in Example 8, and E. coli transformed with pGEX-2T(ALS-P171H, W548L, S627I mutant) constructed in Example 9 were respectively shake-cultured (pre-culture) at 27° C. in 2 ml of LB liquid medium containing ampicillin. These types of E. coli were respectively cultured in 250 ml of LB liquid medium containing ampicillin using 1 ml of the pre-culture solution. After culturing overnight, 1 mM IPTG was added to the media, and then culturing was performed for a further 3 to 4 hours, so that the expression of GST fusion protein was induced. In addition, the cells were stored at −80° C. after washing.
(§5) Preparation and purification of ALS from E. coli were performed by the following method. First, the pellet of the transformant E. coli stored at −80° C. was suspended in ALS extraction buffer (potassium phosphate buffer (pH 7.5) containing 30% glycerol and 0.5 mM MgCl2). Specifically, 2.5 ml of the buffer was added to the pellet obtained from 50 ml of the culture solution. The suspension was subjected to ultrasonication (Heat Systems-Ultrasonics, Sonicator W-225R, micro chip, output control 8, interval of approximately 1 second, twice (40 seconds each)), and subjected to centrifugation at 15000×g, 4° C. for 20 minutes, thereby obtaining the supernatant as a crude enzyme solution.
(§6) Herbicide sensitivity of the wild type ALS protein and that of mutant ALS protein were examined using the 9 types of crude enzyme solutions obtained in Example 10. Herbicide sensitivity test was performed according to procedures almost the same as those in Example 2. However, in this example, reaction temperature was 37° C., reaction time was 30 minutes, and 10 mM valine was added to the reaction solution to inhibit ALS activity derived from E. coli. Further, three types of herbicides, bispyribac-sodium, pyrithiobac-sodium, and pyriminobac, were used as PC herbicides; chlorsulfuron was used as a sulfonylurea herbicide; and imazaquin was used as an imidazolinon herbicide. […]

Experiment [2] concerns the target T2, GST fusion P171H/R172S mutant ALS protein (Oryza sativa subsp. japonica, UniProt Q6K2E8, P171H/R172S).
T2 construct: made in house; host or cells: E. coli JM109, pGEX-2T(ALS P171H, R172S mutant); crude supernatant
Put plainly: Herbicide sensitivity of ALS protein expressed in E. coli (crude enzyme solution), P171H/R172S. The following applies: for RS ratio: P171H/R172S mutant vs wild type; for Predicted RS ratio: product of RS ratios of the 1-point mutants. As for the experimental part: as §1, §2, §3, §4, §5, §6

The target of experiment [3] is T3, GST fusion P171H/S627I mutant ALS protein (Oryza sativa subsp. japonica, UniProt Q6K2E8, P171H/S627I).
T3 construct: made in house; host or cells: E. coli, pGEX-2T(ALS-P171H, S627I mutant); crude supernatant
T3 sequence (Q6K2E8 44-644 P171H/S627I): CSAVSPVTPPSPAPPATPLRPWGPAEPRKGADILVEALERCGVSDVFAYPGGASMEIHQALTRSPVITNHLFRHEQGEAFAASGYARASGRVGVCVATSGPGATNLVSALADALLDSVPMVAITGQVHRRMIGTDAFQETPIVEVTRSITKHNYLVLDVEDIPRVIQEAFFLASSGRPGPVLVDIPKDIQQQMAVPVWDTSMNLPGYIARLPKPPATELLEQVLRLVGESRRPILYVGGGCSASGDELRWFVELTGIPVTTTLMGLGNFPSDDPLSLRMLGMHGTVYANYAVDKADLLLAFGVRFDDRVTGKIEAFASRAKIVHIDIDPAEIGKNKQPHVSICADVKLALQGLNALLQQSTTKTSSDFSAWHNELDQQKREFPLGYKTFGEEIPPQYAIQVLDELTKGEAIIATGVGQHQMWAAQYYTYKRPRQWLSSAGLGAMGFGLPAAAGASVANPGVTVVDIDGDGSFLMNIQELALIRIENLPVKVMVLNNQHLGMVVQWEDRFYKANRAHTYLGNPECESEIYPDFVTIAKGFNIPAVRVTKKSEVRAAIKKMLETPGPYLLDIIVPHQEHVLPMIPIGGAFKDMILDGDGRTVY
Briefly: Herbicide sensitivity of ALS protein expressed in E. coli (crude enzyme solution), P171H/S627I. The following applies: for RS ratio: P171H/S627I mutant vs wild type; for Predicted RS ratio: product of RS ratios of the 1-point mutants. As for the experimental part:
as §1, §2, §3, §4, §5, §6

Experiment [4] addresses T4, GST fusion P171H mutant ALS protein (Oryza sativa subsp. japonica, UniProt Q6K2E8, P171H).
T4 construct: an expression vector having the full-length wild type ALS cDNA incorporated into the Eco RI site of pGEX-2T; made in house; host or cells: E. coli JM109, pGEX-2T(ALS P171H mutant); crude supernatant
Put plainly: Herbicide sensitivity of ALS protein expressed in E. coli (crude enzyme solution), P171H. The following applies: for RS ratio: P171H mutant vs wild type. As for the experimental part:
as §1, §2, §3, §4, §5, §6

In experiment [5] the target is T5, GST fusion wild type ALS protein (Oryza sativa subsp. japonica, UniProt Q6K2E8).
T5 construct: an expression vector having the full-length wild type ALS cDNA incorporated into the Eco RI site of pGEX-2T; made in house; host or cells: E. coli JM109, pGEX-2T(ALS-wild); crude supernatant
T5 sequence (Q6K2E8 44-644): as the sequence (Q6K2E8 44-644 P171H/S627I) above, with H128P, I584S counted along it
Briefly: Herbicide sensitivity of ALS protein expressed in E. coli (crude enzyme solution), wild type. The following applies: 37° C., 30 minutes, 10 mM valine, read-out: I50. As for the experimental part:
as §1, §2
Then, to quantify acetoin contained in the reaction solution, 1 ml of 0.5% (w/v) creatine and 1 ml of 5% (w/v) α-naphthol dissolved in 2.5 N sodium hydroxide was added to the reaction solution, followed by incubation at 37° C. for 10 minutes. Acetoin was then quantified by color comparison of the absorbance (at 525 nm) of the reaction solution, thereby evaluating ALS activity. In addition, since the reaction solution contained a small amount of sodium pyruvate, reaction time 0 was used as control. […]

The target in experiment [6] is T6, GST fusion S627I mutant ALS protein (Oryza sativa subsp. japonica, UniProt Q6K2E8, S627I).
T6 construct: an expression vector having the full-length wild type ALS cDNA incorporated into the Eco RI site of pGEX-2T; made in house; host or cells: E. coli JM109, pGEX 2T(ALS-S627I mutant); crude supernatant
T6 sequence (Q6K2E8 44-644 S627I): as the sequence (Q6K2E8 44-644 P171H/S627I) above, with H128P counted along it
Put plainly: Herbicide sensitivity of ALS protein expressed in E. coli (crude enzyme solution), S627I. The conditions noted are these: for RS ratio: S627I mutant vs wild type. As for the experimental part: as §1, §2, §3, §4, §5, §6

In experiment [7] the target is T7, GST fusion W548L mutant ALS protein (Oryza sativa subsp. japonica, UniProt Q6K2E8, W548L).
T7 construct: an expression vector having the full-length wild type ALS cDNA incorporated into the Eco RI site of pGEX-2T; made in house; host or cells: E. coli JM109, pGEX 2T(ALS-W548L mutant); crude supernatant
T7 sequence (Q6K2E8 44-644 W548L): as the sequence (Q6K2E8 44-644 P171H/S627I) above, with H128P, W505L, I584S counted along it
Put plainly: Herbicide sensitivity of ALS protein expressed in E. coli (crude enzyme solution), W548L. The following applies: for RS ratio: W548L mutant vs wild type. The method, then:
as §1, §2, §3, §4, §5, §6

The target in experiment [8] is T8, GST fusion P171H/W548L mutant ALS protein (Oryza sativa subsp. japonica, UniProt Q6K2E8, P171H/W548L).
T8 construct: made in house; host or cells: E. coli, pGEX-2T(ALS-P171H, W548L mutant); crude supernatant
T8 sequence (Q6K2E8 44-644 P171H/W548L): as the sequence (Q6K2E8 44-644 P171H/S627I) above, with W505L, I584S counted along it
Put plainly: Herbicide sensitivity of ALS protein expressed in E. coli (crude enzyme solution), P171H/W548L. The conditions noted are these: for RS ratio: P171H/W548L mutant vs wild type; for Predicted RS ratio: product of RS ratios of the 1-point mutants. The method, then:
as §1, §2, §3, §4, §5, §6

Each structure is given as a SMILES string. Where two headings read alike, the source gives them in different places.

T1 sequence (Q6K2E8 44-644 R172S): as the sequence (Q6K2E8 44-644 P171H/S627I) above, with H128P, R129S, I584S counted along it
T4 sequence (Q6K2E8 44-644 P171H): as the sequence (Q6K2E8 44-644 P171H/S627I) above, with I584S counted along it
T2 sequence (Q6K2E8 44-644 P171H/R172S): as the sequence (Q6K2E8 44-644 P171H/S627I) above, with R129S, I584S counted along it

Turning to `CON=C(C)c1cccc(Oc2nc(OC)cc(OC)n2)c1C(=O)O` [pyriminobac], the RS ratio is given as 1.2 in experiment [1]; 5.1 in experiment [2]; more than 13000 in experiment [3]; 5 in experiment [4]; 2800 in experiment [6]; 4500 in experiment [7]. Also, the RS ratio in experiment [8] is given as more than 13000. The IC50 was 9.2 nM in experiment [1] (R172S mutant, 37° C., 30 minutes, 10 mM valine, read-out: I50); 41 nM in experiment [2] (P171H/R172S mutant, 37° C., 30 minutes, 10 mM valine, read-out: I50); 40 nM in experiment [4] (P171H mutant, 37° C., 30 minutes, 10 mM valine, read-out: I50); 8 nM in experiment [5]; 22000 nM in experiment [6] (S627I mutant, 37° C., 30 minutes, 10 mM valine, read-out: I50); 36000 nM in experiment [7] (W548L mutant, 37° C., 30 minutes, 10 mM valine, read-out: I50). Further, the entries for the “RS ratio/ predicted RS ratio” value in experiment [2] (P171H/R172S mutant), in experiment [3] (P171H/S627I mutant) and in experiment [8] (P171H/W548L mutant) were 0.85, more than 0.93 and more than 0.57, respectively. Further, the “Predicted RS ratio” value in experiment [2] (P171H/R172S mutant) was 6; in experiment [3] (P171H/S627I mutant), 14000; in experiment [8] (P171H/W548L mutant), 23000. The “inhibition % at the highest concentration among the concentrations tested” value in experiment [3] (P171H/S627I mutant, in 100 μM) was 21%; in experiment [8] (P171H/W548L mutant, in 100 μM) it was 11%.

Take `COc1cc(OC)nc(Sc2cccc(Cl)c2C(=O)O)n1` [pyrithiobac-sodium]: the IC50 was 11 nM in experiment [1]; 140 nM in experiment [2]; 9400 nM in experiment [3]; 37 nM in experiment [4]; 2200 nM in experiment [6]. Moreover, the RS ratio is listed as 1 in experiment [1]; 13 in experiment [2]; 850 in experiment [3]; 3.4 in experiment [4]; 200 in experiment [6]; more than 9100 in experiment [7]. The RS ratio in experiment [8] was more than 9100. In addition, the “RS ratio/ predicted RS ratio” value in experiment [2] (P171H/R172S mutant) is recorded as 3.8; in experiment [3] (P171H/S627I mutant), 1.3. The “Predicted RS ratio” value in experiment [2] (P171H/R172S mutant) was 3.4; in experiment [3] (P171H/S627I mutant), 680; in experiment [8] (P171H/W548L mutant), more than 31000. Further, the inhibition at 100 µM in experiment [7] (read-out: inhibition % at the highest concentration among the concentrations tested, W548L mutant, in 100 μM) came out at 41%; in experiment [8] (read-out: inhibition % at the highest concentration among the concentrations tested, P171H/W548L mutant, in 100 μM), 20%.
